In patent US20260042731A1, “(2,4-DICHLOROPHENOXY)ACETIC ACID ANALOGS” (CORTEVA AGRISCIENCE LLC, priority 2022, published 2026):
Several values for one entry are separate records, joined by “and”; a condition that tells them apart may be missing. Identical values can stand only once. Like-named read-outs stand apart in the source and are kept apart here.

Legend:
[1] = tested on: Abutilon theophrasti (ABUTH), velvetleaf; experiment: Postemergence herbicide evaluation, growth of Abutilon theophrasti (ABUTH); assay type: in vivo; conditions: Abutilon theophrasti, post-emergence, read-out: AVE. ABUTH
[2] = tested on: Amaranthus rudis (AMATA), tall water hemp; experiment: Postemergence herbicide evaluation, growth of Amaranthus rudis (AMATA); assay type: in vivo; conditions: Amaranthus tuberculatus, post-emergence, read-out: Ave. AMATA
[3] = tested on: Chenopodium album (CHEAL), common lambsquarters; experiment: Postemergence herbicide evaluation, growth of Chenopodium album (CHEAL); assay type: in vivo; conditions: Chenopodium album, post-emergence, read-out: Ave. CHEAL
[4] = tested on: Ambrosia artemisiifolia (AMBEL), common ragweed; experiment: Postemergence herbicide evaluation, growth of Ambrosia artemisiifolia (AMBEL); assay type: in vivo; conditions: Ambrosia artemisiifolia, post-emergence, read-out: AVE. AMBEL
[5] = Volatility of compounds measured by thermogravimetric analysis (TGA); assay type: physicochemical
[6] = tested on: weeds ABUTH, AMATA, AMBEL, CHEAL, ERICA; experiment: Postemergence herbicide evaluation, overall average % weed control across ABUTH, AMATA, AMBEL, CHEAL and ERICA; assay type: in vivo; conditions: post-emergence, read-out: Overall Ave % Weed Control

With `O=C(COc1ccc(Cl)cc1Cl)OCCOCCOCCOC(=O)COc1ccc(Cl)cc1Cl` [Compound B13] the pest or weed control at 280 g/ha ([1]; 168 h) was 55%, the pest or weed control at 560 g/ha ([1]; 168 h) was 45% and the pest or weed control at 280 g/ha ([1]; 336 h) was 62.5%. It also gave a pest or weed control at 560 g/ha ([1]; 336 h) of 57.5%, a pest or weed control at 280 g/ha ([1]; 504 h) of 67.5% and a pest or weed control at 560 g/ha ([1]; 504 h) of 62.5%. For the same compound, the pest or weed control at 280 g/ha ([2]; 168 h) was 67.5%, the pest or weed control at 560 g/ha ([2]; 168 h) was 75% and the pest or weed control at 280 g/ha ([2]; 336 h) was 95%. The pest or weed control at 560 g/ha ([2]; 336 h) was 87.5%, the pest or weed control at 280 g/ha ([2]; 504 h) was 65% and the pest or weed control at 560 g/ha ([2]; 504 h) was 67.5%. It also gave a pest or weed control at 280 g/ha ([3]; 168 h) of 80%, a pest or weed control at 560 g/ha ([3]; 168 h) of 82.5% and a pest or weed control at 280 g/ha ([3]; 336 h) of 96.5%. It also gave a pest or weed control at 560 g/ha ([3]; 336 h) of 98%, a pest or weed control at 280 g/ha ([3]; 504 h) of 98.5% and a pest or weed control at 560 g/ha ([3]; 504 h) of 95%. It also gave a pest or weed control at 280 g/ha ([4]; 168 h) of 72.5%, a pest or weed control at 560 g/ha ([4]; 168 h) of 88.5% and a pest or weed control at 280 g/ha ([4]; 336 h) of 72.5%. It also gave a pest or weed control at 560 g/ha ([4]; 336 h) of 75%, a pest or weed control at 280 g/ha ([4]; 504 h) of 100% and a pest or weed control at 560 g/ha ([4]; 504 h) of 99%. For the same compound, the “TGA Data (rate of weight loss, volatility)” value [5] was 0.2318 µg/min, the pest or weed control at 280 g/ha ([6]; 168 h) was 72% and the pest or weed control at 560 g/ha ([6]; 168 h) was 75.7%. It also gave a pest or weed control at 280 g/ha ([6]; 336 h) of 83.6%, a pest or weed control at 560 g/ha ([6]; 336 h) of 82.6% and a pest or weed control at 280 g/ha ([6]; 504 h) of 86%. It also gave a pest or weed control at 560 g/ha ([6]; 504 h) of 84.5%.
Work on `O=C(COc1ccc(Cl)cc1Cl)OCCOC(=O)COc1ccc(Cl)cc1Cl` [Compound B9] yielded a pest or weed control at 280 g/ha ([1]; 168 h) of 57.5%, a pest or weed control at 560 g/ha ([1]; 168 h) of 57.5% and a pest or weed control at 280 g/ha ([1]; 336 h) of 77.5%. The pest or weed control at 560 g/ha ([1]; 336 h) was 70%, the pest or weed control at 280 g/ha ([1]; 504 h) was 98.5% and the pest or weed control at 560 g/ha ([1]; 504 h) was 75%. For the same compound, the pest or weed control at 280 g/ha ([2]; 168 h) was 72.5%, the pest or weed control at 560 g/ha ([2]; 168 h) was 77.5% and the pest or weed control at 280 g/ha ([2]; 336 h) was 91%. It also gave a pest or weed control at 560 g/ha ([2]; 336 h) of 90%, a pest or weed control at 280 g/ha ([2]; 504 h) of 70% and a pest or weed control at 560 g/ha ([2]; 504 h) of 82.5%. The pest or weed control at 280 g/ha ([3]; 168 h) was 82.5%, the pest or weed control at 560 g/ha ([3]; 168 h) was 77.5% and the pest or weed control at 280 g/ha ([3]; 336 h) was 94%. For the same compound, the pest or weed control at 560 g/ha ([3]; 336 h) was 95%, the pest or weed control at 280 g/ha ([3]; 504 h) was 97.5% and the pest or weed control at 560 g/ha ([3]; 504 h) was 92.5%. The pest or weed control at 280 g/ha ([4]; 168 h) was 77.5%, the pest or weed control at 560 g/ha ([4]; 168 h) was 74% and the pest or weed control at 280 g/ha ([4]; 336 h) was 70%. The pest or weed control at 560 g/ha ([4]; 336 h) was 85%, the pest or weed control at 280 g/ha ([4]; 504 h) was 100% and the pest or weed control at 560 g/ha ([4]; 504 h) was 100%. For the same compound, the “TGA Data (rate of weight loss, volatility)” value [5] was 0.1482 µg/min, the pest or weed control at 280 g/ha ([6]; 168 h) was 75% and the pest or weed control at 560 g/ha ([6]; 168 h) was 72.3%. The pest or weed control at 280 g/ha ([6]; 336 h) was 86.5%, the pest or weed control at 560 g/ha ([6]; 336 h) was 86.6% and the pest or weed control at 280 g/ha ([6]; 504 h) was 92.5%. For the same compound, the pest or weed control at 560 g/ha ([6]; 504 h) was 89.9%.
`O=C(COc1ccc(Cl)cc1Cl)OCCCCCOC(=O)COc1ccc(Cl)cc1Cl` [Compound B8] gave a pest or weed control at 280 g/ha ([1]; 504 h) of 97%, a pest or weed control at 560 g/ha ([1]; 504 h) of 99% and a pest or weed control at 280 g/ha ([2]; 168 h) of 84%. For the same compound, the pest or weed control at 280 g/ha ([2]; 336 h) was 92.5%, the pest or weed control at 560 g/ha ([2]; 336 h) was 96.5% and the pest or weed control at 280 g/ha ([2]; 504 h) was 92.5%. For the same compound, the pest or weed control at 560 g/ha ([2]; 504 h) was 100%, the pest or weed control at 280 g/ha ([3]; 168 h) was 80% and the pest or weed control at 560 g/ha ([3]; 168 h) was 82.5%. For the same compound, the pest or weed control at 280 g/ha ([3]; 336 h) was 92.5%, the pest or weed control at 560 g/ha ([3]; 336 h) was 97% and the pest or weed control at 280 g/ha ([3]; 504 h) was 96%. It also gave a pest or weed control at 560 g/ha ([3]; 504 h) of 99.5%, a pest or weed control at 560 g/ha ([4]; 168 h) of 72.5% and a pest or weed control at 280 g/ha ([4]; 336 h) of 90%. For the same compound, the pest or weed control at 280 g/ha ([4]; 504 h) was 100%, the pest or weed control at 560 g/ha ([4]; 504 h) was 100% and the “TGA Data (rate of weight loss, volatility)” value [5] was 0.3521 µg/min and 0.38 µg/min. For the same compound, the pest or weed control at 280 g/ha ([6]; 168 h) was 74.3%, the pest or weed control at 560 g/ha ([6]; 168 h) was 79.8% and the pest or weed control at 280 g/ha ([6]; 336 h) was 90.4%. It also gave a pest or weed control at 560 g/ha ([6]; 336 h) of 95.9%, a pest or weed control at 280 g/ha ([6]; 504 h) of 96.8% and a pest or weed control at 560 g/ha ([6]; 504 h) of 99.7%.
Work on `O=C(COc1ccc(Cl)cc1Cl)OCCCOC(=O)COc1ccc(Cl)cc1Cl` [Compound B10] yielded a pest or weed control at 280 g/ha ([1]; 168 h) of 27.5%, a pest or weed control at 560 g/ha ([1]; 168 h) of 22.5% and a pest or weed control at 280 g/ha ([1]; 336 h) of 25%. The pest or weed control at 560 g/ha ([1]; 336 h) was 32.5%, the pest or weed control at 280 g/ha ([1]; 504 h) was 25% and the pest or weed control at 560 g/ha ([1]; 504 h) was 27.5%. The pest or weed control at 280 g/ha ([2]; 168 h) was 70%, the pest or weed control at 560 g/ha ([2]; 168 h) was 62.5% and the pest or weed control at 280 g/ha ([2]; 336 h) was 77.5%. It also gave a pest or weed control at 560 g/ha ([2]; 336 h) of 80%, a pest or weed control at 280 g/ha ([2]; 504 h) of 67.5% and a pest or weed control at 560 g/ha ([2]; 504 h) of 55%. The pest or weed control at 280 g/ha ([3]; 168 h) was 77.5%, the pest or weed control at 560 g/ha ([3]; 168 h) was 72.5% and the pest or weed control at 280 g/ha ([3]; 336 h) was 75%. The pest or weed control at 560 g/ha ([3]; 336 h) was 90%, the pest or weed control at 280 g/ha ([3]; 504 h) was 88.5% and the pest or weed control at 560 g/ha ([3]; 504 h) was 85%. The pest or weed control at 280 g/ha ([4]; 168 h) was 62.5%, the pest or weed control at 560 g/ha ([4]; 168 h) was 57.5% and the pest or weed control at 280 g/ha ([4]; 336 h) was 67.5%. The pest or weed control at 560 g/ha ([4]; 336 h) was 67.5%, the pest or weed control at 280 g/ha ([4]; 504 h) was 90% and the pest or weed control at 560 g/ha ([4]; 504 h) was 75%. For the same compound, the “TGA Data (rate of weight loss, volatility)” value [5] was 0.02488 µg/min, the pest or weed control at 280 g/ha ([6]; 168 h) was 62% and the pest or weed control at 560 g/ha ([6]; 168 h) was 58%. The pest or weed control at 280 g/ha ([6]; 336 h) was 64.5%, the pest or weed control at 560 g/ha ([6]; 336 h) was 69.9% and the pest or weed control at 280 g/ha ([6]; 504 h) was 72.2%. It also gave a pest or weed control at 560 g/ha ([6]; 504 h) of 68%.
Work on `O=C(COc1ccc(Cl)cc1Cl)OCCCCCCOC(=O)COc1ccc(Cl)cc1Cl` [Compound B12] yielded a pest or weed control at 280 g/ha ([1]; 504 h) of 55%, a pest or weed control at 560 g/ha ([1]; 504 h) of 65% and a pest or weed control at 280 g/ha ([2]; 504 h) of 62.5%. The pest or weed control at 560 g/ha ([2]; 504 h) was 62.5%, the pest or weed control at 280 g/ha ([3]; 504 h) was 96.5% and the pest or weed control at 560 g/ha ([3]; 504 h) was 90%. For the same compound, the pest or weed control at 280 g/ha ([4]; 504 h) was 100%, the pest or weed control at 560 g/ha ([4]; 504 h) was 100% and the “TGA Data (rate of weight loss, volatility)” value [5] was 0.2274 µg/min. The pest or weed control at 280 g/ha ([6]; 504 h) was 82% and the pest or weed control at 560 g/ha ([6]; 504 h) was 82.9%.
